Here are results for 23 molecules from patent US8088761B2, “Enzyme inhibitors” (Cancer Research Technology Limited, priority 2005, dated 2012).

Experiment [1] relates to HCT116 cells. Description: Cell viability assay (MTT) in HCT116 cell line. It is filed as cell-based. To be noted: Homo sapiens, HCT-116, 72 hrs, IC50 range, read-out: HCT116 cell growth inhibition. Here is the method: Cell Viability Assay: Determination of IC50 of Aurora Inhibitors in HCT116 Cell Line Using MTT Assay. The effects of compounds of the Examples on cellular proliferation were determined using the MTT assay according to manufacturer's instructions (Sigma). Briefly, the human colon tumour cells HCT116, were seeded in triplicate into 96-well plates at 2500 cells/well 24 hours before treatment with a range of concentrations of Aurora inhibitors (0-50 μM). After 72 hrs, 15 μl/well of 0.5% 3-(4,5-dimethylthiazol-2-yl)-2,5-diphenyltetrazolium bromide (MTT) was added to the cells for 4 hrs at 37° C., the dye-stained viable cells were extracted by adding 150 μl/well of dimethyl sulphoxide (DMSO). […] The IC50 was calculated using the Prism software.

Experiment [2] deals with T1, Aurora-A (Homo sapiens, UniProt O14965).
T1 sequence (O14965 1-403): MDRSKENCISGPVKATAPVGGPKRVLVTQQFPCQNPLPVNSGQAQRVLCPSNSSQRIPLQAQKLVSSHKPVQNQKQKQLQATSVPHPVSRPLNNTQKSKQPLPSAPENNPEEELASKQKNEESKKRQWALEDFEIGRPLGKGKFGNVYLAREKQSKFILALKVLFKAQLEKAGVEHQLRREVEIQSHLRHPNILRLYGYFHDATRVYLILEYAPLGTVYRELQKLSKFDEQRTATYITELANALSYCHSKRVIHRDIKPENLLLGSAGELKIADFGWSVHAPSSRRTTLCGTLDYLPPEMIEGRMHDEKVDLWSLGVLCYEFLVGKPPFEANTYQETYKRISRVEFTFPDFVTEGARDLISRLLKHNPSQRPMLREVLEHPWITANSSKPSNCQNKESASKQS
The experiment is described as follows: Flashplate Aurora A enzyme inhibition assay. The class given is biochemical. To be noted: Flashplate assay; IC50 range; read-out: Aurora-A inhibition. Here is the method:
Flashplate® Assay for Identification and Evaluation of Aurora-A Inhibitors
On this assay 384-well Basic Flashplate® (SMP400E, PerkinElmer) as solid assay platform was used. The plates were coated overnight at 4° C. with […] at 100 μg/ml in PBS buffer and used after being washed twice with PBS. 5 μl of compound in 2% DMSO was added to each well followed by 15 μl master mix of kinase buffer (50 mM Tris pH 7.5, 10 mM NaCl, 2.5 mM MgCl2, 1 mM […], 20 μM ATP, and 0.025 μCi/μl ^33P-ATP). Finally, 250 ng per well of Aurora-A enzyme was added. The plate was shaken for approximately 2 min on a flat-bed plate shaker (Wellmix, Denley, UK) and incubated for 2 hours at room temperature. The reaction was stopped by washing the plate twice on a 16-pin wash (ELX50 BioTek Instruments Ltd., Northstar, Bedford, UK) with 10 mM sodium pyrophosphate. The plate was then read on a TopCount-NX™ (PerkinElmer Life Sciences UK Ltd., Hounslow, UK).

For `CN(C)c1ccc(-c2nc3c(N4CCN(CCc5ccccc5)CC4)c(Cl)cnc3[nH]2)cc1` [Example 176, 4-(6-Chloro-7-(4-phenethylpiperazin-1-yl)-3H-imidazo[4,5-b]pyridin-2-yl)-N,N-dimethylaniline], the values for the IC50 in experiment [1] and in experiment [2] were 2000 to 50000 nM and 500 to 2000 nM, respectively.
Regarding `COc1ccc(CN2CCN(c3c(Br)cnc4[nH]c(-c5ccc(N6CCOCC6)cc5)nc34)CC2)cn1` [Example 118, 4-(4-(6-Bromo-7-(4-((6-methoxypyridin-3-yl)methyl)piperazin-1-yl)-3H-imidazo[4,5-b]pyridin-2-yl)phenyl)morpholine], the IC50 in experiment [1] and in experiment [2] was less than 500 nM in each case.
In the case of `O=C(CN1CCN(c2c(Cl)cnc3[nH]c(-c4ccc(N5CCC(O)CC5)cc4)nc23)CC1)Nc1nccs1` [Example 184, 2-(4-(6-Chloro-2-(4-(4-hydroxypiperidin-1-yl)phenyl)-3H-imidazo[4,5-b]pyridin-7-yl)piperazin-1-yl)-N-(thiazol-2-yl)acetamide], the results for the IC50 in experiment [1] and in experiment [2] were 500 to 2000 nM and less than 500 nM, respectively.
For `CC(C)(C)OC(=O)NCc1ccc(-c2nc3c(N4CCC(Oc5ccccc5)CC4)c(Br)cnc3[nH]2)cc1` [Example 134, tert-Butyl 4-(6-bromo-7-(4-phenoxypiperidin-1-yl)-3H-imidazo[4,5-b]pyridin-2-yl)benzylcarbamate], the IC50 in experiment [1] and in experiment [2] was less than 500 nM each time.
For the molecule `Cc1nc(CN2CCN(c3c(Cl)cnc4[nH]c(-c5ccc(CN6CCOCC6)cc5)nc34)CC2)cs1` [Example 172, 4-(4-(6-Chloro-7-(4-((2-methylthiazol-4-yl)methyl)piperazin-1-yl)-3H-imidazo[4,5-b]pyridin-2-yl)benzyl)morpholine], the results for the IC50 in experiment [1] and in experiment [2] were 500 to 2000 nM and less than 500 nM, respectively.
Consider `CN(C)c1ccc(-c2nc3c(N4CCN(Cc5ccccn5)CC4)c(Br)cnc3[nH]2)cc1` [Example 30, 4-(6-Bromo-7-(4-(pyridin-2-ylmethyl)piperazin-1-yl)-3H-imidazo[4,5-b]pyridin-2-yl)-N,N-dimethylaniline], for which the figures for the IC50 in experiment [1] and in experiment [2] were 2000 to 50000 nM and less than 500 nM, respectively.
On the same counts, the results for `CC(c1ccncc1)N1CCN(c2c(Br)cnc3[nH]c(-c4ccc(CN5CCOCC5)cc4)nc23)CC1` (stereo not shown) [Example 129, 4-(4-(6-Bromo-7-(4-(1-(pyridin-4-yl)ethyl)piperazin-1-yl)-3H-imidazo[4,5-b]pyridin-2-yl)benzyl)morpholine] are less than 500 nM and less than 500 nM.
Turning to `CN(C)c1ccc(-c2nc3c(N4CCN(Cc5ccc(Cl)cc5)CC4)c(Br)cnc3[nH]2)cc1` [Example 26, 4-(6-Bromo-7-(4-(4-chlorobenzyl)piperazin-1-yl)-3H-imidazo[4,5-b]pyridin-2-yl)-N,N-dimethylaniline], the IC50 in experiment [1] and in experiment [2] was less than 500 nM each time.
With `COc1ccc(-c2nc3c(N4CCN(Cc5ccncc5)CC4)c(Cl)cnc3[nH]2)cc1` [Example 35, 6-Chloro-2-(4-methoxyphenyl)-7-(4-(pyridin-4-ylmethyl)piperazin-1-yl)-3H-imidazo[4,5-b]pyridine], the IC50 in experiment [1] is 500 to 2000 nM; in experiment [2] it was less than 500 nM.
For `NCc1ccc(-c2nc3c(N4CCN(Cc5cccnc5)CC4)c(Br)cnc3[nH]2)cc1` [Example 60, (4-(6-Bromo-7-(4-(pyridin-3-ylmethyl)piperazin-1-yl)-3H-imidazo[4,5-b]pyridin-2-yl)phenyl)methanamine] the same measures were 500 to 2000 nM and less than 500 nM.
For `Clc1cnc2[nH]c(-c3ccc(CN4CCNCC4)cc3)nc2c1N1CCN(Cc2cncnc2)CC1` [Example 141, 6-Chloro-2-(4-(piperazin-1-ylmethyl)phenyl)-7-(4-(pyrimidin-5-ylmethyl)piperazin-1-yl)-3H-imidazo[4,5-b]pyridine], the values for the IC50 in experiment [1] and in experiment [2] were 500 to 2000 nM and less than 500 nM, respectively.
Turning to `O=S1(=O)CCN(c2ccc(-c3nc4c(N5CCN(Cc6cccnc6)CC5)c(Br)cnc4[nH]3)cc2)CC1` [Example 115, 4-(4-(6-Bromo-7-(4-(pyridin-3-ylmethyl)piperazin-1-yl)-3H-imidazo[4,5-b]pyridin-2-yl)phenyl)-1,1-dioxothiomorpholine], the IC50 in experiment [1] was 500 to 2000 nM; in experiment [2] it was less than 500 nM.
On the same counts, the results for `NCc1ccc(-c2nc3c(N4CCN(CC(=O)Nc5nccs5)CC4)c(Br)cnc3[nH]2)cc1` [Example 7, 2-{4-[2-(4-Aminomethyl-phenyl)-6-bromo-3H-imidazo[4,5-b]pyridin-7-yl]-piperazin-1-yl}-N-thiazol-2-yl-acetamide] are 500 to 2000 nM and less than 500 nM.
For the molecule `CC(C)(C)OC(=O)N1CCN(Cc2ccc(-c3nc4c(N5CCN(Cc6cccnc6)CC5)c(Br)cnc4[nH]3)cc2)CC1` [Example 105, tert-Butyl 4-(4-(6-bromo-7-(4-(pyridin-3-ylmethyl)piperazin-1-yl)-3H-imidazo[4,5-b]pyridin-2-yl)benzyl)piperazine-1-carboxylate], the IC50 in experiment [1] is 500 to 2000 nM; in experiment [2], less than 500 nM.
For `Brc1cnc2[nH]c(-c3ccc(CN4CCOCC4)cc3)nc2c1N1CCN(Cc2cccc3c2OCO3)CC1` [Example 120, 4-(4-(7-(4-(Benzo[d][1,3]dioxol-4-ylmethyl)piperazin-1-yl)-6-bromo-3H-imidazo[4,5-b]pyridin-2-yl)benzyl)morpholine] the same measures were 2000 to 50000 nM and less than 500 nM.
Turning to `CN1CCN(c2ccc(-c3nc4c(N5CCN(Cc6cccnc6)CC5)c(Br)cnc4[nH]3)cc2)CC1` [Example 101, 6-Bromo-2-(4-(4-methylpiperazin-1-yl)phenyl)-7-(4-(pyridin-3-ylmethyl)piperazin-1-yl)-3H-imidazo[4,5-b]pyridine], the values for the IC50 in experiment [1] and in experiment [2] were 500 to 2000 nM and less than 500 nM, respectively.
On to `Brc1cnc2[nH]c(-c3ccc(CN4CCOCC4)cc3)nc2c1N1CCN(Cc2cncs2)CC1` [Example 171, 4-(4-(6-Bromo-7-(4-(thiazol-5-ylmethyl)piperazin-1-yl)-3H-imidazo[4,5-b]pyridin-2-yl)benzyl)morpholine], for which the IC50 is 500 to 2000 nM in experiment [1] and less than 500 nM in experiment [2].
As to `Clc1cnc2[nH]c(-c3ccc(Cn4cccn4)cc3)nc2c1N1CCN(Cc2ccncc2)CC1` [Example 83, 2-(4-((1H-Pyrazol-1-yl)methyl)phenyl)-6-chloro-7-(4-(pyridin-4-ylmethyl)piperazin-1-yl)-3H-imidazo[4,5-b]pyridine], the IC50 in experiment [1] and in experiment [2] was less than 500 nM throughout.
`CN(C)c1ccc(-c2nc3c(N4CCN(CC(=O)N(C)c5ccccc5)CC4)c(Cl)cnc3[nH]2)cc1` [Example 3, 2-{4-[6-Chloro-2-(4-dimethylamino-phenyl)-3H-imidazo[4,5-b]pyridin-7-yl]-piperazin-1-yl}-N-methyl-N-phenyl-acetamide]: the figures for the IC50 in experiment [1] and in experiment [2] were 2000 to 50000 nM and less than 500 nM, respectively.
Regarding `CN(C)c1ccc(-c2nc3c(N4CCN(C(=O)COc5ccccc5)CC4)c(Br)cnc3[nH]2)cc1` [Example 38, 1-(4-(6-Bromo-2-(4-(dimethylamino)phenyl)-3H-imidazo[4,5-b]pyridin-7-yl)piperazin-1-yl)-2-phenoxyethanone], the figures for the IC50 in experiment [1] and in experiment [2] were 500 to 2000 nM and less than 500 nM, respectively.
As to `CC(C)(C)OC(=O)N1CCN(c2ccc(-c3nc4c(N5CCN(Cc6cccnc6)CC5)c(Cl)cnc4[nH]3)cc2)CC1` [Example 136, tert-Butyl 4-(4-(6-chloro-7-(4-(pyridin-3-ylmethyl)piperazin-1-yl)-3H-imidazo[4,5-b]pyridin-2-yl)phenyl)piperazine-1-carboxylate], the IC50 in experiment [1] lay in the range of 2000 to 50000 nM; in experiment [2], 500 to 2000 nM.
As to `Cc1cc(CN2CCN(c3c(Cl)cnc4[nH]c(-c5ccc(CN6CCOCC6)cc5)nc34)CC2)no1` [Example 80, 6-Chloro-7-[4-(5-methyl-isoxazol-3-ylmethyl)-piperazin-1-yl]-2-(4-morpholin-4-ylmethyl-phenyl)-3H-imidazo[4,5-b]pyridine], the figures for the IC50 in experiment [1] and in experiment [2] were 500 to 2000 nM and less than 500 nM, respectively.
With `COc1cccc(-c2nc3c(N4CCN(CC(=O)Nc5nccs5)CC4)c(Br)cnc3[nH]2)c1` [Example 29], the IC50 in experiment [1] is 500 to 2000 nM; in experiment [2], less than 500 nM.
